Reference: patent publication US10040781B2, “Tank-binding kinase inhibitor compounds” (Gilead Sciences, Inc., priority 2014, dated 2018)

What was measured:
IKKε = IKKε (Homo sapiens (Human), UniProt Q14164); assay: IKKε TR-FRET enzymatic assay; assay type: biochemical; settings: read-out: IKKe IC50
hJAK2 = hJAK2 (Homo sapiens (Human), UniProt O60674); assay: hJAK2 LANCE TR-FRET enzymatic assay; assay type: biochemical; settings: read-out: JAK2 IC50
TBK1 = TBK1 (Homo sapiens (Human), UniProt Q9UHD2); assay: TBK1 TR-FRET enzymatic assay;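 also: phosphorylation of a biotinylated Ser/Thr peptide by purified full-length recombinant TBK1, read by TR-FRET after 240 min at 25 °C, IC50 is the geometric mean of at least four runs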
Sequence of TBK1 (Q9UHD2 whole entry): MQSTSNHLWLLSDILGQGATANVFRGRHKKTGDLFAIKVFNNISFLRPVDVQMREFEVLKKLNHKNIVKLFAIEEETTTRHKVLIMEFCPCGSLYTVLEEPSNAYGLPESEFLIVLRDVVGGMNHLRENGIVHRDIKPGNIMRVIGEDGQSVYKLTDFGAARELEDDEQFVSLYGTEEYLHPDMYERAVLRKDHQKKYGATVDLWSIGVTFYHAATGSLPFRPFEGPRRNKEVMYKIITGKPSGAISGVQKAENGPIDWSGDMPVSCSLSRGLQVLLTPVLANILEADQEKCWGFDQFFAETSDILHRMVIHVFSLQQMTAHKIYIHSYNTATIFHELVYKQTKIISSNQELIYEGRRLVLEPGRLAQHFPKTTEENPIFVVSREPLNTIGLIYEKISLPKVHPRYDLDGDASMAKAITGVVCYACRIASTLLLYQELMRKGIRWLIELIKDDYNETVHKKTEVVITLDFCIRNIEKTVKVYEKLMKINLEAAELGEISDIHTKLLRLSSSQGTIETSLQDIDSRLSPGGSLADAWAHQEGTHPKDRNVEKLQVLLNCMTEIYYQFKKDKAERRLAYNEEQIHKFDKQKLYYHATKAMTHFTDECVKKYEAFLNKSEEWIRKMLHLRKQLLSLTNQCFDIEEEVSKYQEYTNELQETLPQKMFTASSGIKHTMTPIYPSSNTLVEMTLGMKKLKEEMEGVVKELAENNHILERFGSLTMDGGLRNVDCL

Sequence of IKKε (Q14164 whole entry): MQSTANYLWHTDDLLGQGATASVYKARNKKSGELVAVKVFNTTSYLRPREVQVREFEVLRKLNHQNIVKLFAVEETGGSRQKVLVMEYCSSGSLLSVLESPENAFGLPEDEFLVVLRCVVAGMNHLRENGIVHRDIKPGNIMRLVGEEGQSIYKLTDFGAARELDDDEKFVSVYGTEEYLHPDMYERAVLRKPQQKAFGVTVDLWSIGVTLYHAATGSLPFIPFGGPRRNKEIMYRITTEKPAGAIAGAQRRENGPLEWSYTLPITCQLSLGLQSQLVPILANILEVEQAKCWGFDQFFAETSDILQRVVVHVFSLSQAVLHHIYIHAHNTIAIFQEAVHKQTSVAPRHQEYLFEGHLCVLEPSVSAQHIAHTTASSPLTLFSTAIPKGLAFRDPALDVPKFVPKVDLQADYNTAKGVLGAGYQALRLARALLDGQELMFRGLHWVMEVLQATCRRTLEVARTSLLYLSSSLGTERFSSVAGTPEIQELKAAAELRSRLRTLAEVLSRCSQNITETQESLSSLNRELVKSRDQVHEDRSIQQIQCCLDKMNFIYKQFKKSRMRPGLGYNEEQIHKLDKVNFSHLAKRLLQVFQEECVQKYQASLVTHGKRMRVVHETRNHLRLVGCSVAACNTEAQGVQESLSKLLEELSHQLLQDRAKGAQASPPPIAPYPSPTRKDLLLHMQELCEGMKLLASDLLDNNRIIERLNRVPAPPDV
Sequence of hJAK2 (O60674 whole entry): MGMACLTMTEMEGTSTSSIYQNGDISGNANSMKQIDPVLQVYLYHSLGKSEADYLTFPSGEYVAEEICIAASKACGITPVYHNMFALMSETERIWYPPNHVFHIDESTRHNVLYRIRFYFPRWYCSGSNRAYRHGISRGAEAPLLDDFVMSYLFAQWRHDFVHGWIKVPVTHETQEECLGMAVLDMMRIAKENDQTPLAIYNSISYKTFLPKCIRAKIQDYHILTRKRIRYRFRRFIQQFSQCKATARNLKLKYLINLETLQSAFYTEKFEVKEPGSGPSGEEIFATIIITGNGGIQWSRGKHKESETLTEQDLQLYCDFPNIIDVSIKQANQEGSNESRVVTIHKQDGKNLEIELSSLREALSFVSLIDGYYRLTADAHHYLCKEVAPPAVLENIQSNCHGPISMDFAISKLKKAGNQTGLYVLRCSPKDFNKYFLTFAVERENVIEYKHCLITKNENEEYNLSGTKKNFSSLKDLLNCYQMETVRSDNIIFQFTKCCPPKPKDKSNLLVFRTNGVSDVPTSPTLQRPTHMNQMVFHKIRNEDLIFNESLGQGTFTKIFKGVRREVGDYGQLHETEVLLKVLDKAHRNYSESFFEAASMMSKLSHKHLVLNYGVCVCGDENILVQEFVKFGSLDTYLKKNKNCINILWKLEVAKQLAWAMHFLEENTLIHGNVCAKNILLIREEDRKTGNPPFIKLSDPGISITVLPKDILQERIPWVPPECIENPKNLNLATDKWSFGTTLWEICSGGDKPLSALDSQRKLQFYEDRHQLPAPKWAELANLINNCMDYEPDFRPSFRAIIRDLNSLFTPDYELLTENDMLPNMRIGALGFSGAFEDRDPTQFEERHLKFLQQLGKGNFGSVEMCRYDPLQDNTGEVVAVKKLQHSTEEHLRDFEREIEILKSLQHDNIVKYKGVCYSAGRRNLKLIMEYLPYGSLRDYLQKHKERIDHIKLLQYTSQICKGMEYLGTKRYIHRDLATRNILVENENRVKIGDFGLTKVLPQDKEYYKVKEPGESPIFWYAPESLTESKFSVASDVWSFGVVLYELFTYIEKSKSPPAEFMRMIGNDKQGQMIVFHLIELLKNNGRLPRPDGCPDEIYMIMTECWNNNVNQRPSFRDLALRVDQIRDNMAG

Row | SMILES | IC50 (IKKε) [nM] | IC50 (hJAK2) [nM] | IC50 (TBK1) [nM]
1 | C[C@H]1CN(c2ccc(Nc3ncnc(-c4ccc(O[C@H]5CCN(C(=O)c6cnn[nH]6)C[C@H]5F)c(C#N)c4)n3)cc2)CCN1C1COC1 [Example 263, 2-(((3R,4S)-3-fluoro-1-(1H-1,2,3-triazole-5-carbonyl)piperidin-4-yl)oxy)-5-(4-((4-((S)-3-methyl-4-(oxetan-3-yl)piperazin-1-yl)phenyl)amino)-1,3,5-triazin-2-yl)benzonitrile] | 3 | 158 | 3
2 | C[C@H](O)C(=O)N1CC[C@H](Oc2ccc(-c3ncnc(Nc4ccc(N5CCN(C6COC6)[C@@H](C)C5)cc4)n3)cc2C#N)[C@H](F)C1 [Example 264, 2-(((3R,4S)-3-fluoro-1-((S)-2-hydroxypropanoyl)piperidin-4-yl)oxy)-5-(4-((4-((S)-3-methyl-4-(oxetan-3-yl)piperazin-1-yl)phenyl)amino)-1,3,5-triazin-2-yl)benzonitrile] | 1 | 296 | 2
3 | C[C@H](O)C(=O)N1CC[C@H](Oc2ccc(-c3ncnc(Nc4ccc(N5C[C@@H](C)N(C6COC6)C[C@@H]5C)cc4)n3)cc2C#N)[C@H](F)C1 [Example 265, 5-(4-((4-((2S,5R)-2,5-dimethyl-4-(oxetan-3-yl)piperazin-1-yl)phenyl)amino)-1,3,5-triazin-2-yl)-2-(((3R,4S)-3-fluoro-1-((S)-2-hydroxypropanoyl)piperidin-4-yl)oxy)benzonitrile] | 4 | 426 | 5
4 | Cc1ncc(C(=O)N2CC[C@H](Oc3ccc(-c4ncnc(Nc5ccc(N6CCN(C7COC7)CC6)cc5)n4)cc3C#N)[C@H](F)C2)n1C [Example 266, 2-(((3R,4S)-1-(1,2-dimethyl-1H-imidazole-5-carbonyl)-3-fluoropiperidin-4-yl)oxy)-5-(4-((4-(4-(oxetan-3-yl)piperazin-1-yl)phenyl)amino)-1,3,5-triazin-2-yl)benzonitrile] | 83 | 387 | 82
5 | Cn1cncc1C(=O)N1CC[C@H](Oc2ccc(-c3ncnc(Nc4ccc(N5CCN(C6COC6)CC5)cc4)n3)cc2C#N)[C@H](F)C1 [Example 267, 2-(((3R,4S)-3-fluoro-1-(1-methyl-1H-imidazole-5-carbonyl)piperidin-4-yl)oxy)-5-(4-((4-(4-(oxetan-3-yl)piperazin-1-yl)phenyl)amino)-1,3,5-triazin-2-yl)benzonitrile] | 264 | 404 | 120
6 | N#Cc1cc(-c2ncnc(Nc3ccc(N4CCN(C5COC5)CC4)c(F)c3)n2)ccc1OC1CCS(=O)(=O)CC1 [Example 268, 2-((1,1-dioxidotetrahydro-2H-thiopyran-4-yl)oxy)-5-(4-((3-fluoro-4-(4-(oxetan-3-yl)piperazin-1-yl)phenyl)amino)-1,3,5-triazin-2-yl)benzonitrile] | 69 | 527 | 12
7 | COC1CN(c2ccc(-c3ncnc(Nc4ccc(N5CCN(C6COC6)CC5)cc4)n3)cc2C#N)C1 [Example 269, 2-(3-methoxyazetidin-1-yl)-5-(4-((4-(4-(oxetan-3-yl)piperazin-1-yl)phenyl)amino)-1,3,5-triazin-2-yl)benzonitrile] | 25 | 219 | 13
8 | N#Cc1cc(-c2ncnc(Nc3ccc(N4CCN(C5COC5)CC4)cc3)n2)cc(F)c1OC1CCS(=O)(=O)CC1 [Example 271, 2-((1,1-dioxidotetrahydro-2H-thiopyran-4-yl)oxy)-3-fluoro-5-(4-((4-(4-(oxetan-3-yl)piperazin-1-yl)phenyl)amino)-1,3,5-triazin-2-yl)benzonitrile] | 110 | ≥ 1000 | 18
9 | CS(=O)(=O)C1CN(c2ccc(-c3ncnc(Nc4ccc(N5CCN(C6COC6)CC5)cc4)n3)cc2C#N)C1 [Example 272, 2-(3-(methylsulfonyl)azetidin-1-yl)-5-(4-((4-(4-(oxetan-3-yl)piperazin-1-yl)phenyl)amino)-1,3,5-triazin-2-yl)benzonitrile] | 53 | 68 | 28
10 | CS(=O)(=O)N1CC(Oc2ccc(-c3ncnc(Nc4ccc(N5CCN(C6COC6)CC5)cc4)n3)cc2C#N)C1 [Example 273, 2-((1-(methylsulfonyl)azetidin-3-yl)oxy)-5-(4-((4-(4-(oxetan-3-yl)piperazin-1-yl)phenyl)amino)-1,3,5-triazin-2-yl)benzonitrile] | 285 | 133 | 139
11 | N#Cc1cc(-c2ncnc(Nc3ccc(N4CCN(C5COC5)CC4)cc3)n2)ccc1OC1CN(C(=O)CO)C1 [Example 274, 2-((1-(2-hydroxyacetyl)azetidin-3-yl)oxy)-5-(4-((4-(4-(oxetan-3-yl)piperazin-1-yl)phenyl)amino)-1,3,5-triazin-2-yl)benzonitrile] | ≥ 1000 | ≥ 1000 | 47
12 | N#Cc1cc(-c2ncnc(Nc3ccc4oc(=O)[nH]c4c3)n2)ccc1OC1CCOCC1 [Example 277, 5-(4-((2-oxo-2,3-dihydrobenzo[d]oxazol-5-yl)amino)-1,3,5-triazin-2-yl)-2-((tetrahydro-2H-pyran-4-yl)oxy)benzonitrile] | 47 | ≥ 1000 | 18
13 | CC1(C)C(=O)Nc2ccc(Nc3ncnc(-c4ccc(OC5CCOCC5)c(C#N)c4)n3)cc21 [Example 278, 5-(4-((3,3-dimethyl-2-oxoindolin-5-yl)amino)-1,3,5-triazin-2-yl)-2-((tetrahydro-2H-pyran-4-yl)oxy)benzonitrile] | 9 | 541 | 4
14 | N#Cc1cc(-c2ncnc(Nc3ccc(N4CCN(C5COC5)CC4)cc3)n2)ccc1OC1CCC2(CC1)OCCO2 [Example 279, 2-(1,4-dioxaspiro[4.5]decan-8-yloxy)-5-(4-((4-(4-(oxetan-3-yl)piperazin-1-yl)phenyl)amino)-1,3,5-triazin-2-yl)benzonitrile] | 75 | ≥ 1000 | 27
15 | N#Cc1cc(-c2ncnc(Nc3ccc(N4CCN(C5COC5)CC4)cc3)n2)ccc1OCC1(F)COC1 [Example 280, 2-((3-fluorooxetan-3-yl)methoxy)-5-(4-((4-(4-(oxetan-3-yl)piperazin-1-yl)phenyl)amino)-1,3,5-triazin-2-yl)benzonitrile] | 10 | 110 | 4
16 | COc1cc(Nc2ncnc(-c3ccc(OC4CCN(C(=O)[C@H](C)O)CC4)c(C#N)c3)n2)ccc1N1CCN(C2COC2)CC1 [Example 281, (S)-2-((1-(2-hydroxypropanoyl)piperidin-4-yl)oxy)-5-(4-((3-methoxy-4-(4-(oxetan-3-yl)piperazin-1-yl)phenyl)amino)-1,3,5-triazin-2-yl)benzonitrile] | 8 | 185 | 2
17 | C[C@H](Oc1ccc(-c2ncnc(Nc3ccc(N4CCN(C5COC5)CC4)cc3)n2)cc1C#N)C1CCOCC1 [Example 282, (S)-5-(4-((4-(4-(oxetan-3-yl)piperazin-1-yl)phenyl)amino)-1,3,5-triazin-2-yl)-2-(1-(tetrahydro-2H-pyran-4-yl)ethoxy)benzonitrile] | 16 | 219 | 14
18 | C[C@@H](Oc1ccc(-c2ncnc(Nc3ccc(N4CCN(C5COC5)CC4)cc3)n2)cc1C#N)C1CCOCC1 [Example 283, (R)-5-(4-((4-(4-(oxetan-3-yl)piperazin-1-yl)phenyl)amino)-1,3,5-triazin-2-yl)-2-(1-(tetrahydro-2H-pyran-4-yl)ethoxy)benzonitrile] | 115 | 450 | 22
19 | N#Cc1cc(-c2ncnc(Nc3ccc(N4CCN(C5COC5)CC4)cc3)n2)ccc1OCC1CCOCC1 [Example 285, 5-(4-((4-(4-(oxetan-3-yl)piperazin-1-yl)phenyl)amino)-1,3,5-triazin-2-yl)-2-((tetrahydro-2H-pyran-4-yl)methoxy)benzonitrile] | 8 | 313 | 4
20 | CC(C)[C@H](Oc1ccc(-c2ncnc(Nc3ccc(N4CCN(C5COC5)CC4)cc3)n2)cc1C#N)C(N)=O [Example 286, (S)-2-(2-cyano-4-(4-((4-(4-(oxetan-3-yl)piperazin-1-yl)phenyl)amino)-1,3,5-triazin-2-yl)phenoxy)-3-methylbutanamide] | 237 | ≥ 1000 | 94
21 | N#Cc1cc(-c2ncnc(Nc3ccc(N4CC(O)C4)nc3)n2)ccc1OC1CCOCC1 [Example 287, 5-(4-((6-(3-hydroxyazetidin-1-yl)pyridin-3-yl)amino)-1,3,5-triazin-2-yl)-2-((tetrahydro-2H-pyran-4-yl)oxy)benzonitrile] | 20 | ≥ 1000 | 15
22 | N#Cc1cc(-c2ncnc(Nc3ccc(N4CCN(C5COC5)CC4)cc3)n2)ccc1O[C@H]1CCN(C(=O)C(F)F)C[C@H]1F [Example 288, 2-(((3R,4S)-1-(2,2-difluoroacetyl)-3-fluoropiperidin-4-yl)oxy)-5-(4-((4-(4-(oxetan-3-yl)piperazin-1-yl)phenyl)amino)-1,3,5-triazin-2-yl)benzonitrile] | 2 | 316 | 3
23 | CC(=O)N1CC[C@H](Oc2ccc(-c3ncnc(Nc4ccc(N5CCN(C6COC6)CC5)cc4)n3)cc2C#N)[C@H](F)C1 [Example 289, 2-(((3R,4S)-1-acetyl-3-fluoropiperidin-4-yl)oxy)-5-(4-((4-(4-(oxetan-3-yl)piperazin-1-yl)phenyl)amino)-1,3,5-triazin-2-yl)benzonitrile] | 5 | 444 | 4
24 | N#Cc1cc(-c2ncnc(Nc3ccc(N4CCN(C5COC5)CC4)cc3)n2)ccc1O[C@H]1CCCC[C@H]1N [Example 291, 2-(((1S,2R)-2-aminocyclohexyl)oxy)-5-(4-((4-(4-(oxetan-3-yl)piperazin-1-yl)phenyl)amino)-1,3,5-triazin-2-yl)benzonitrile] | 603 | 474 | 266
